The record followed here is patent US4333930A, “Orthoarylideneaminophenethylamines and pharmaceutical compositions” (priority 1980, dated 1982).

In data set [1] the test system is number of escapes the animal made in 5 minutes. The data set can be described thus: Escape test, Table 3. The class given is in vivo, mouse. The source says:
The products of the invention were always administered orally in 6% gum base.
The notation NS signifies that the difference between the results noted for the product and the results noted for the excipient alone is not significant at the threshold 0.05 according to the Student t Test.

The test system of the next data set is phenylbenzoquinone (PBQ). Nature of the data set: Analgesic activity using phenylbenzoquinone (PBQ) as noxious agent, Table 2. To be noted: Mus musculus. The class given is in vivo, male Swiss mouse. As for the experimental part: The analgesic activity was determined with the male Swiss mouse using phenylbenzoquinone (PBQ) (a variation of the method of Siegmund et al, Proc. Soc. Exp. Med., […], 95, 729-31) as the noxious agent. Twenty-eightminutes after having administered the test products in a suspension in a 6% gum base, the PBQ solution was injected. The mice were then observed ca. 5 mn. for the next five minutes.
% of analgesic activity as a function of
the dose expressed in mg/kg

Data set [2] is described as follows: Oral toxicity (mortality) in the mouse, Table 1. Conditions: mouse, in vivo, po, Swiss mice, 14 days. The class given is in vivo. As for the experimental part:
The mortality percentages caused by the products of the present invention administered orally to Swiss mice are shown in Table 1. The animals, free of specific pathological organism were housed in an air conditioned room from 24 to 48 hours before the start of the experiments. They were divided up into lots of 5 males and 5 females. With the animals unfed for 24 hours, the substances were administered intragastrically in a base of 6% gum arabic in a volume equal to 0.1 ml for 10 g of animal weight. The mortality was recorded at 14 days.
% of mortality as a function of the dose

For data set [3], the system named is ptosis induced by reserpine. Nature of the data set: Antagonism of ptosis induced by reserpine, Table 6. In kind it is in vivo. To be noted: read-out: % of inhibition of ptosis induced by reserpine. The text has this: (§1) The psychotropic profile of the present invention products has been characterized with the animals in numerous tests some of whose results are shown hereinafter. The products of the invention were always administered orally in 6% gum base.
(§2) Certain tests made it possible to show antidepressive activities. These are tests of antagonism to the effects of reserpine, oxotremorine (according to Everett G. M. et al, Science, 1956, 124, 79 and Levy J. et al, Therapie 1965, 20, 265) and to despair (according to Porsolt P. D. et al, Eur. J. Pharmacol., 1978, 47, 379-91).
% of inhibition of ptosis induced by reserpine
as a function of the dose administered orally

The subject of data set [4] is number of displacements of the animal. The data set can be described thus: Four plates test (anxiolytic activity), Table 5. In kind it is in vivo. Conditions: oral, mouse.
Excerpt: as §1
A certain number of products manifest an anxiolytic activity evidenced in the test with the four plates with the mouse (Table 5).
% of increase in the number of displacements of the
animal as a function of the dose expressed in mg/kg

In data set [5] the test system is trembling induced by oxotremorine. Nature of the data set: Antagonism of trembling induced by oxotremorine, Table 7. The class given is in vivo. To be noted: oral, read-out: % of inhibition of trembling induced by oxotremorine.
Excerpt: as §1, §2
% of inhibition of trembling induced by
oxotremorine as a function of the dose
administered expressed in mg/kg

Setting [6] is: read-out: % of analgesic activity, 100 mg/kg, male Swiss mouse, PBQ.
[7] abbreviates: read-out: % of analgesic activity, 200 mg/kg, male Swiss mouse, PBQ.
Setting [8] is: 50 mg/kg, male Swiss mouse, PBQ, read-out: % of analgesic activity.
The mark [9] stands for this setting: 100 mg/kg, male Swiss mouse, PBQ, read-out: % of analgesic activity.
The mark [10] stands for this setting: 200 mg/kg, male Swiss mouse, PBQ, read-out: % of analgesic activity.
[11] abbreviates: read-out: % of analgesic activity, 50 mg/kg, male Swiss mouse, PBQ.
The mark [12] stands for this setting: Mus musculus, po, 5 min, read-out: % of activity (variation of the number of escapes).
Setting [13] is: 5 min, 50 mg/kg, oral, mouse, 5 minutes, read-out: % of activity (variation of the number of escapes).
Setting [14] is: 5 min, oral, mouse, 5 minutes, read-out: % of activity (variation of the number of escapes).

Where a name gives a salt, the structure may show the parent alone. Read-outs that look alike come from different tables or passages of the source.

“2-(2-N,N-dimethylamino-1-methylethyl)-N-pyridylidene-3 aniline [COR 01 213]”: the “% of activity (variation of the number of escapes)” value in data set [1] (100 mg/kg, oral, mouse, 5 minutes) is listed as -20%.
As for `CC(=O)Oc1ccccc1C(=O)O` [Acetylsalicyclic acid, reference compound], the inhibition in vivo at 100 mg/kg in the data set with phenylbenzoquinone (PBQ) (setting [6]) worked out at 55%. In addition, the inhibition in vivo at 200 mg/kg with phenylbenzoquinone (PBQ) (setting [7]) is 61%.
As a reminder, the mortality is the percentage killed. Lower therefore signals a weak lethal effect. For the molecule `CN(C)CCc1cc2c(cc1N=Cc1ccccc1C(=O)O)OCO2` [COR 01 142, N-6-(2-N,N-dimethylaminoethyl)-1,3-benzodioxol-5-yl-2-formimidoylbenzoic acid, internal salt], the inhibition in vivo at 50 mg/kg with phenylbenzoquinone (PBQ) (setting [8]) stood at 22%. Besides, the inhibition in vivo at 100 mg/kg in the data set on phenylbenzoquinone (PBQ) (setting [9]) was determined as 20%. Besides, in the data set with phenylbenzoquinone (PBQ) (setting [10]), the inhibition in vivo at 200 mg/kg amounted to 10%. Further, the results for the mortality at 336 h in data set [2] (1000 mg/kg) and in data set [2] (2000 mg/kg) were 0% and 50%, respectively.
On to `Cc1ccc(C=Nc2cc3c(cc2CCN(C)C)OCO3)s1` [COR 01 169], for which the inhibition in vivo at 50 mg/kg with phenylbenzoquinone (PBQ) (setting [11]) is 7%. The inhibition in vivo at 100 mg/kg with phenylbenzoquinone (PBQ) (setting [6]) stood at 43%. The values for the mortality at 336 h in data set [2] (750 mg/kg), in data set [2] (1000 mg/kg) and in data set [2] (1500 mg/kg) were 50%, 20% and 80%, respectively.
Turning to `C(=Nc1cc2c(cc1CCN1CCCCC1)OCO2)c1cccs1` [COR 01 175, 6-(2-N-piperidinoethyl) N-(thienylidene-2)-1,3-benzodioxole-5-ylamine], in the data set on phenylbenzoquinone (PBQ) (setting [9]), the inhibition in vivo at 100 mg/kg is 13%. Further, in the data set with phenylbenzoquinone (PBQ) (setting [10]), the inhibition in vivo at 200 mg/kg came to 71%. Moreover, the results for the mortality at 336 h in data set [2] (250 mg/kg), in data set [2] (500 mg/kg) and in data set [2] (750 mg/kg) were 0%, 10% and 10%, respectively.
Consider `CN(C)CCc1cc2c(cc1N=Cc1ccc(Br)s1)OCO2` [COR 01 181], for which the inhibition in vivo at 50 mg/kg in the data set on phenylbenzoquinone (PBQ) (setting [11]) was 25%. In the data set with phenylbenzoquinone (PBQ) (setting [6]), the inhibition in vivo at 100 mg/kg came out at 42%. For the same molecule, the mortality at 336 h in data set [2] (250 mg/kg) came to 0%; in data set [2] (500 mg/kg) it was 30%.
Consider `CN(C)CCc1ccccc1N=CC=Cc1ccccc1` [COR 01 185, N-cinnamylidene 2-(2-N,N,-dimethylaminoethyl)aniline], for which the mortality at 336 h in data set [2] (1500 mg/kg) was determined as 0%; in data set [2] (2000 mg/kg), 100%.
Take `CC(C)(C)NCCc1cc2c(cc1N=Cc1cccnc1)OCO2` [COR 01 195]: in the data set with phenylbenzoquinone (PBQ) (setting [6]), the inhibition in vivo at 100 mg/kg is 24%. The inhibition in vivo at 200 mg/kg in the data set with phenylbenzoquinone (PBQ) (setting [7]) stood at 31%. Moreover, in data set [3] (po), the change in vivo at 50 mg/kg was -22% and the change in vivo at 100 mg/kg is -22%. Moreover, in data set [1] (setting [12]), the change in vivo at 3 mg/kg came out at 54%, the change in vivo at 5 mg/kg was found to be 53%, the change in vivo at 50 mg/kg was determined as 19% and the change in vivo at 100 mg/kg is 28%. For the same molecule, in data set [2] (1000 mg/kg), the mortality at 336 h was determined as 0%. The mortality at 336 h in data set [2] (1500 mg/kg) was found to be 20%. The same molecule showed a mortality at 336 h in data set [2] (2000 mg/kg) of 30%.
Regarding `C(=Cc1ccccc1)C=Nc1cc2c(cc1CCN1CCCC1)OCO2` [COR 01 200], the “% of increase in the number of displacements of the animal” value was “+112%” in data set [4] (5 mg/kg); “+180%” in data set [4] (10 mg/kg); “+292%” in data set [4] (20 mg/kg); “+142%” in data set [4] (25 mg/kg); “+84%” in data set [4] (50 mg/kg). Further, in data set [3] (25 mg/kg, oral), the change in vivo at 25 mg/kg was -28%. The change in vivo at 100 mg/kg in data set [3] (100 mg/kg, oral) was -24%. For the same molecule, the change in vivo at 10 mg/kg in data set [1] (5 min, 10 mg/kg, oral, mouse, 5 minutes, read-out: % of activity (variation of the number of escapes)) was found to be 25%. Also, the change in vivo at 50 mg/kg in data set [1] (setting [13]) came to 38%. Besides, the mortality at 336 h is 0% in data set [2] (750 mg/kg), 10% in data set [2] (1000 mg/kg) and 70% in data set [2] (1500 mg/kg).
In the case of `C(=Nc1cc2c(cc1CCN1CCOCC1)OCO2)c1cccnc1` [COR 01 204], the change in vivo at 50 mg/kg in data set [5] is -30%; in data set [1] (setting [13]), -24%. Also, the change in vivo at 100 mg/kg in data set [5] was -20%; in data set [1] (5 min, 100 mg/kg, oral, mouse, 5 minutes, read-out: % of activity (variation of the number of escapes)) it was -15%. For the same molecule, the results for the change in vivo at 200 mg/kg in data set [5] and in data set [1] (setting [14]) were -30% and -24%, respectively. Moreover, the inhibition in vivo at 50 mg/kg in the data set on phenylbenzoquinone (PBQ) (setting [8]) turned out to be 0%. Moreover, in the data set with phenylbenzoquinone (PBQ) (setting [9]), the inhibition in vivo at 100 mg/kg came out at 45%. The inhibition in vivo at 200 mg/kg with phenylbenzoquinone (PBQ) (setting [10]) was found to be 42%. Besides, the change in vivo at 5 mg/kg in data set [1] (5 min, 5 mg/kg, oral, mouse, 5 minutes, read-out: % of activity (variation of the number of escapes)) is -28%. Also, the change in vivo at 25 mg/kg in data set [1] (5 min, 25 mg/kg, oral, mouse, 5 minutes, read-out: % of activity (variation of the number of escapes)) was -31%. Moreover, the change in vivo at 75 mg/kg in data set [1] (5 min, 75 mg/kg, oral, mouse, 5 minutes, read-out: % of activity (variation of the number of escapes)) is -20%. Moreover, the figures for the mortality at 336 h in data set [2] (1500 mg/kg) and in data set [2] (2000 mg/kg) were 0% and 10%, respectively.
Turning to `CN1CCN(CCc2ccccc2N=Cc2cccnc2)CC1` [COR 01 205], the change in vivo at 50 mg/kg in data set [5] was -30%; in data set [3] (50 mg/kg, oral) it was -31%. The change in vivo at 100 mg/kg was -30% in data set [5] and -25% in data set [3] (100 mg/kg, oral). For the same molecule, the change in vivo at 200 mg/kg in data set [5] was -40%; in data set [3] (200 mg/kg, oral), -31%; in data set [1] (setting [14]) it was -34%. Besides, in the data set on phenylbenzoquinone (PBQ) (setting [9]), the inhibition in vivo at 100 mg/kg stood at 10%. For the same molecule, the inhibition in vivo at 200 mg/kg in the data set with phenylbenzoquinone (PBQ) (setting [10]) is 36%. Also, the mortality at 336 h in data set [2] (1000 mg/kg) stood at 0%; in data set [2] (1500 mg/kg), 10%; in data set [2] (2000 mg/kg), 10%.
Regarding `CN(C)CCc1cc2c(cc1N=Cc1ccc(Cl)c(Cl)c1)OCO2` [COR 01 207], the mortality at 336 h in data set [2] (750 mg/kg) was determined as 0%; in data set [2] (1000 mg/kg), 20%; in data set [2] (1500 mg/kg), 20%; in data set [2] (2000 mg/kg), 40%.
Take `CN(C)CCc1cc2c(cc1N=Cc1ccc(Cl)cc1)OCO2` [COR 01 208]: the mortality at 336 h in data set [2] (500 mg/kg) came out at 0%; in data set [2] (750 mg/kg), 30%; in data set [2] (1000 mg/kg), 20%; in data set [2] (1500 mg/kg), 20%; in data set [2] (2000 mg/kg), 80%.
As for `CC(Cc1ccccc1N=Cc1cccnc1)N(C)C` (stereo not drawn) [COR 01 214, 2-(2-N,N-dimethylamino-2-methylethyl)-N-pyridylidene-3 aniline], the inhibition in vivo at 100 mg/kg with phenylbenzoquinone (PBQ) (setting [6]) was determined as 21%. Further, the inhibition in vivo at 200 mg/kg with phenylbenzoquinone (PBQ) (setting [7]) was 30%. The mortality at 336 h in data set [2] (1000 mg/kg) came to 0%; in data set [2] (1500 mg/kg), 30%; in data set [2] (2000 mg/kg) it was 70%.
